# Reference: patent publication EP0076430A1, “Compositions having antimicrobial activity” (MEDEA RESEARCH S.r.l., priority 1981, dated 1983)
# Assays:
# Assay type in all cases: cell-based
# [1] = tested on: Bacillaceae; assay: Minimum inhibitory concentration (MIC), broth dilution; conditions: 24 h; strain 1722
# Description: (§1) Different bacterial species isolated from patients are employed.
# (§2) Compounds AB5 and AB6 are dissolved in ethanol (ethyl alcohol 95°, C. Erba) and all the subsequent dilutions performed in distilled water. The chlorhexidine is diluted from the commercial product already dissolved in distilled water.
# (§3) The broth dilution is employed to assess MIC values for all strains. Sterile microtiter plates with U bottom with 96 wells are employed. 0.1 Ml of liquid medium (tryptose Roche broth) are put in each well, the plates are kept at -20° and, before use, at room temperature.
# (§4) The disinfectant agent is put in the wells of the row 2 at a concentration of 4000 mcg/ml (real 2000 mcg/ml) and then with a 100 µl micro- pipette dilutions are performed from row 2 to row 11.
# (§5) The row 1 is the control of the medium and the row 12 is the control for the fertility of the medium itself.
# (§6) After having performed the dilutions, 0.01 ml of a 24 hrs bacterial broth culture (previously diluted at 10^-4 for Gram-negative strains and 10-2 for Gram-positive ones) are placed in all wells, from the rows 2 to 12. After the inoculation, the plate is hermetical ly sealed with adhesive transparent band and an hole is done with a needle. The plates are kept at 35° for 24 hours and a macroscopic reading is carried out; in case of non uniform reading, taking place only for chlorhexidine, the cultures from the wells are plated on agar-heart-brain medium (Sclavo) through Dinatech apparatus (head "Inoculum 96") and the reading of the growth is carried out in the following 24 hours.
# [2] = tested on: E.coli; assay: as above; conditions: Escherichia coli, 24 h
# Description: as §1, §2, §3, §4, §5, §6
# [3] = tested on: Enterobacter; assay: as above; conditions: 24 h, strain 2643
# Description: as §1, §2, §3, §4, §5, §6
# [4] = tested on: Indole-positive Proteus; assay: as above; conditions: 24 h
# Description: as §1, §2, §3, §4, §5, §6
# [5] = tested on: Pseudomonas aeruginosa; assay: as above; conditions: 24 h
# Description: as §1, §2, §3, §4, §5, §6
# [6] = tested on: Staph. aureus; assay: as above; conditions: Staphylococcus aureus, 24 h; strain 2672
# Description: as §1, §2, §3, §4, §5, §6
# [7] = tested on: Salmonella sp.; assay: as above; conditions: 24 h, strain 2482
# Description: as §1, §2, §3, §4, §5, §6
# [8] = tested on: Serratia marcescens; assay: Bactericide activity at different contact times; parameters: key to Bactericide action (growth / no growth): + = growth; - = no growth; conditions: 200 p.p.m.
# Description: as §1, §2
# (§7) It is assessed through Dinatech apparatus with "Inoculum 96" head.
# (§8) Chemical compounds at established concentra tions are placed in amount of 1 ml in the con tainers, the bacterial inoculum is then added in amount of 0.1 ml (24 hrs culture) and at pre-established times (3,5,10,30,60 and 120 mi nutes), through the head, the mixture compound/ disinfectant agent is transferred in solid medium (agar-heart-brain medium). After incubation at 35°C for 24 hours, the reading is carried out. The tests are repeated in presence of human serum at the concentration of 10%.
# [9] = tested on: Indole-positive Proteus; assay: Bactericide activity at different contact times; parameters: key to Bactericide action (growth / no growth): + = growth; - = no growth; conditions: 200 p.p.m.
# Description: as §1, §2, §7, §8
# [10] = tested on: E. coli; assay: Bactericide activity at different contact times; parameters: key to Bactericide action (growth / no growth): + = growth; - = no growth; conditions: 200 p.p.m.
# Description: as §1, §2, §7, §8
# [11] = tested on: B. subtilis; assay: Bactericide activity at different contact times; parameters: key: + = growth; - = no growth; conditions: 200 p.p.m.
# Description: as §1, §2, §7, §8
# [12] = tested on: Staph. aureus; assay: Bactericide activity at different contact times; parameters: key: + = growth; - = no growth; conditions: 200 p.p.m.
# Description: as §1, §2, §7, §8
# [13] = tested on: Salmonella sp.; assay: Bactericide activity at different contact times; parameters: key: + = growth; - = no growth; conditions: 200 p.p.m.
# Description: as §1, §2, §7, §8
# [14] = tested on: Pseudomonas aeruginosa; assay: Bactericide activity at different contact times; parameters: key to Bactericide action (growth / no growth) / Bactericide activity (growth / no growth), serum interference test: + = growth; - = no growth; conditions: 200 p.p.m.
# Description: as §1, §2, §7, §8
# [15] = tested on: Different bacterial species isolated from patients; assay: Bactericide activity, minimum active concentration on the strains; conditions: Homo sapiens, 24 h
# Description: as §1
# Strains of E. coli, Pseudomonas aeruginosa, indole-positive and negative Proteus, Staphilococcus aureus, Enterobacter, Salmonella sp., Serratia marcescens, B. subtilis and Bacillaceae are investigated.
# as §2, §7, §8
# For chlorhexidine, the minimum active concentration is 200 p.p.m.
smiles,measurement,setting,value
"N=C(NCCCCCCNC(=N)NC(=N)Nc1ccc(Cl)cc1)NC(=N)Nc1ccc(Cl)cc1 [Chlorhexidine, N,N'-bis-(4-chlorophenyl)-3,12-diimino-2,4,11,13-tetraazatetradecandiimidamide, reference compound]",MIC,[1],< 0.98 µg/mL
same,MIC,[2]; strain 2096,1000 µg/mL
same,MIC,[2]; strain 2117,1000 µg/mL
same,MIC,[2]; strain 2456,500 µg/mL
same,MIC,[2]; strain 2568,2000 µg/mL
same,MIC,[3],2000 µg/mL
same,MIC,[4]; strain 2075,> 1000 µg/mL
same,MIC,[4]; strain 2083,1000 µg/mL
same,MIC,[4]; strain 2105,> 1000 µg/mL
same,MIC,[4]; strain 2410,2000 µg/mL
same,MIC,[4]; strain 2447,2000 µg/mL
same,MIC,[4]; strain 2674,> 2000 µg/mL
same,MIC,[5]; strain 2458,1000 µg/mL
same,MIC,[5]; strain 2488,2000 µg/mL
same,MIC,[5]; strain 2508,> 2000 µg/mL
same,MIC,[5]; strain 2509,2000 µg/mL
same,MIC,[5]; strain 2670,> 2000 µg/mL
same,MIC,[6],< 0.98 µg/mL
same,MIC,[7],500 µg/mL
same,Bactericide action (growth / no growth),[8]; contact time 3 min,+
same,Bactericide action (growth / no growth),[8]; contact time 5 min,+
same,Bactericide action (growth / no growth),[8]; contact time 10 min,+
same,Bactericide action (growth / no growth),[8]; contact time 30 min,+
same,Bactericide action (growth / no growth),[8]; contact time 60 min,-
same,Bactericide action (growth / no growth),[8]; contact time 120 min,-
same,Bactericide action (growth / no growth),[9]; contact time 3 min,+
same,Bactericide action (growth / no growth),[9]; contact time 5 min,+
same,Bactericide action (growth / no growth),[9]; contact time 10 min,+
same,Bactericide action (growth / no growth),[9]; contact time 30 min,+
same,Bactericide action (growth / no growth),[9]; contact time 60 min,+
same,Bactericide action (growth / no growth),[9]; contact time 120 min,-
same,contact time for total bactericide activity,[10],30 to 120 min
same,Bactericide action (growth / no growth),[10]; contact time 3 min,+
same,Bactericide action (growth / no growth),[10]; contact time 5 min,+
same,Bactericide action (growth / no growth),[10]; contact time 10 min,+
same,Bactericide action (growth / no growth),[10]; contact time 30 min,-
same,Bactericide action (growth / no growth),[10]; contact time 60 min,-
same,Bactericide action (growth / no growth),[10]; contact time 120 min,-
same,Bactericide action (growth / no growth),[11]; contact time 3 min,+
same,Bactericide action (growth / no growth),[11]; contact time 5 min,+
same,Bactericide action (growth / no growth),[11]; contact time 10 min,+
same,Bactericide action (growth / no growth),[11]; contact time 30 min,+
same,Bactericide action (growth / no growth),[11]; contact time 60 min,-
same,Bactericide action (growth / no growth),[11]; contact time 120 min,-
same,Bactericide action (growth / no growth),[12]; contact time 3 min,+
same,Bactericide action (growth / no growth),[12]; contact time 5 min,+
same,Bactericide action (growth / no growth),[12]; contact time 10 min,+
same,Bactericide action (growth / no growth),[12]; contact time 30 min,-
same,Bactericide action (growth / no growth),[12]; contact time 60 min,-
same,Bactericide action (growth / no growth),[12]; contact time 120 min,-
same,Bactericide action (growth / no growth),[13]; contact time 3 min,+
same,Bactericide action (growth / no growth),[13]; contact time 5 min,+
same,Bactericide action (growth / no growth),[13]; contact time 10 min,+
same,Bactericide action (growth / no growth),[13]; contact time 30 min,+
same,Bactericide action (growth / no growth),[13]; contact time 60 min,-
same,Bactericide action (growth / no growth),[13]; contact time 120 min,-
same,Bactericide action (growth / no growth),[14]; contact time 3 min,+
same,Bactericide action (growth / no growth),[14]; contact time 5 min,+
same,Bactericide action (growth / no growth),[14]; contact time 10 min,+
same,Bactericide action (growth / no growth),[14]; contact time 30 min,+
same,Bactericide action (growth / no growth),[14]; contact time 60 min,-
same,Bactericide action (growth / no growth),[14]; contact time 120 min,-
same,MBC,[15],200 µg/mL
